Drawing on patent US9944666B2, “Compounds that are S1P modulating agents and/or ATX modulating agents” (BIOGEN MA INC., priority 2012, dated 2018), this text covers IC50 for 24 compounds.

SMILES strings stand for the structures.

The target of this assay is T1, Human ATX protein (Homo sapiens, UniProt Q13822).
T1 construct: made in house
The assay can be described thus: ATX biochemical FRET assay with FS-3 substrate. The settings on record: FS-3 2 μM, ATX 1.0 μg/mL, room temperature 2 hours, fluorescence 485/538 nm. The text has this:
ATX (Autotaxin) is a 125 KDa glycoprotein with lysophospholipase D (LPLD) activity that generates the bioactive lipid lysophosphatidic acid (LPA) from lysophosphatidylcholine (LPC). The ATX biochemical assay utilizes a FRET (fluorescence resonance energy transfer) technology platform. The fluorescence signal of FRET substrate FS-3 is quenched due to intra-molecular FRET of a fluorophore to a non-fluorescing quencher (Ferguson, C. G., et al., Org Lett. 2006 May 11; 8(10): 2023-2026, which is incorporated by reference in its entirety). ATX catalyzes the hydrolysis of the substrate which separates the dabsyl quencher from the fluorescein reporter, which becomes fluorescent. The reaction is monitored by a SpectraMax M5 (Molecular Devices, Sunnyvale, Calif.) with at excitation wavelength 485 nm and emission wavelength […].
Fatty acid free-BSA (Sigma A8806): 10 mg/ml, in H2O, stored at 4° C.
2×ATX assay buffer: 100 mM Tris, 280 mM NaCl, 10 mM KCl, 2 mM CaCl2, 2 mM MgCl2, pH 7.4.
Human ATX protein: expressed and purified in house. Stored at −80° C.
Substrate FS-3 (Echelon, L-2000): 100 μg in 77.74 μL H2O (1 mM stock), stored at −20° C.
384-well flat bottom plates—Corning #3575.
Compound dilution—All compounds were provided at 10 mM in 100% DMSO. In the first well, 2 μL of 10 mM compound was added to 78 μL of DMSO (1:40 dilution). In subsequent wells 3-fold dilution (total 10 dilutions) were performed.
1×ATX assay buffer was made up with a final concentration of 1 mg/mL fatty acid free-BSA using 2×ATX assay buffer, 10 mg/ml fatty acid free-BSA and ddH2O.
ATX protein was diluted with 1×ATX assay buffer to a concentration of 1.32 μg/mL (1.32×). 38 μL was added per well to the assay plate. The final concentration of ATX in the reaction as 1.0 μg/mL.
2 μL per well of compounds was transferred to provide the desired concentration. The plate was centrifuged, then incubated at room temperature for 30 minutes on the shaker.
FS-3 was diluted with 1×ATX assay buffer to a concentration of FS-3 of 10 μM (5×). Then, 10 μL was added per well to the assay plate. The final concentration of FS-3 in the reaction was 2 μM. The plate was centrifuged. The plate was kept shaking at room temperature for 2 hours. Because FS-3 substrate is light sensitive, plates were kept covered and protected from light.
Fluorescence was measured using SpectraMax M5 (excitation at 485 nm/emission at 538 nm, top read).
As for `C[C@@H](c1ccc2c(C(F)(F)F)c(O[C@H]3CC[C@@H](C(F)(F)F)CC3)ccc2c1)N1C2CCCC1CC(C(=O)O)C2` (single isomer, unassigned) [Example 90], the IC50 – broadly, the concentration at which inhibition is half-maximal – is at most 100 nM.
In the case of `CC[C@@H](c1ccc2c(C(F)(F)F)c(O[C@H]3CC[C@@H](C)CC3)ccc2c1)N1C2CCC1CC(C(=O)O)C2` (single isomer, unassigned) [Example 233, 8-((s)-1-(6-((cis-4-methylcyclohexyl)oxy)-5-(trifluoromethyl)naphthalen-2-yl)propyl)-8-azabicyclo[3.2.1]octane-3-carboxylic acid], the 50% inhibitory concentration (IC50) is at most 100 nM.
Consider `CC[C@H]1CC[C@@H](Oc2ccc3cc([C@@H](C)N4C5CCCC4CC(C(=O)O)C5)ccc3c2Cl)CC1` (single isomer, unassigned) [Example 238], for which the IC50 is at most 100 nM.
The compound `C[C@H](c1ccc2c(Cl)c(O[C@H]3CC[C@@H](C(F)(F)F)CC3)ccc2c1)N1C2CCCC1CC(C(=O)O)C2` (single isomer, unassigned) [Example 240] yielded an IC50 of at most 100 nM.
As for `C[C@H](c1ccc2c(Cl)c(O[C@H]3CC[C@@H](C(F)(F)F)CC3)ccc2c1)N1C2CCC1CC(C(=O)O)C2` (single isomer, unassigned) [Example 242], the half-maximal inhibitory concentration (IC50) is at most 100 nM.
For `CC[C@@H](c1ccc2c(Cl)c(O[C@H]3CC[C@@H](CC)CC3)ccc2c1)N1C2CCCC1CC(C(=O)O)C2` (single isomer, unassigned) [Example 249] the value was at most 100 nM; for `CC[C@H](c1ccc2c(C(F)(F)F)c(O[C@H]3CC[C@@H](C(F)(F)F)CC3)ccc2c1)N1C2CCC1CC(C(=O)O)C2` (single isomer, unassigned) [Example 287], at most 100 nM.
For `CC[C@@H](c1ccc2c(C(F)(F)F)c(O[C@H]3CC[C@@H](C(F)(F)F)CC3)ccc2c1)N1C2CCC1CC(C(=O)O)C2` (single isomer, unassigned) [Example 288] the value was at most 250 nM; for `CC[C@H]1CC[C@@H](Oc2ccc3cc([C@@H](C)N4C5CCC4CC(C(=O)O)C5)ccc3c2C(F)(F)F)CC1` (single isomer, unassigned) [Example 289], at most 100 nM.
Compound `CC[C@H]1CC[C@@H](Oc2ccc3cc([C@H](C)N4C5CCC4CC(C(=O)O)C5)ccc3c2C(F)(F)F)CC1` (single isomer, unassigned) [Example 290] displayed a half-maximal inhibitory concentration (IC50) of at most 100 nM.
For the compound `CC[C@H]1CC[C@@H](Oc2ccc3cc([C@@H](C)N4C5CCCC4CC(C(=O)O)C5)ccc3c2C(F)(F)F)CC1` (single isomer, unassigned) [Example 291], the IC50 is at most 100 nM.
The compound `CC[C@H]1CC[C@@H](Oc2ccc3cc([C@H](C)N4C5CCCC4CC(C(=O)O)C5)ccc3c2C(F)(F)F)CC1` (single isomer, unassigned) [Example 292] came in with an IC50 of at most 100 nM.
Compound `CC[C@H](c1ccc2c(C(F)(F)F)c(O[C@H]3CC[C@@H](CC)CC3)ccc2c1)N1C2CCC1CC(C(=O)O)C2` (single isomer, unassigned) [Example 293] displayed a 50% inhibitory concentration (IC50) of at most 500 nM.
Turning to `CC[C@@H](c1ccc2c(C(F)(F)F)c(O[C@H]3CC[C@@H](CC)CC3)ccc2c1)N1C2CCC1CC(C(=O)O)C2` (single isomer, unassigned) [Example 294], the IC50 is at most 100 nM.
In the case of `CC[C@H](c1ccc2c(C(F)(F)F)c(O[C@H]3CC[C@@H](C(F)(F)F)CC3)ccc2c1)N1C2CCCC1CC(C(=O)O)C2` (single isomer, unassigned) [Example 295], the half-maximal inhibitory concentration (IC50) was at most 250 nM.
The compound `CC[C@@H](c1ccc2c(C(F)(F)F)c(O[C@H]3CC[C@@H](C(F)(F)F)CC3)ccc2c1)N1C2CCCC1CC(C(=O)O)C2` (single isomer, unassigned) [Example 296] yielded an IC50 of at most 100 nM.
As to `CC(c1ccc2c(C(F)(F)F)c(O[C@H]3CC[C@@H](C)CC3)ccc2c1)N1C2CCCC1CC(C(=O)O)C2` (single isomer, unassigned; enantiomer 1) [Example 94, 9-(1-(6-((cis-4-Methylcyclohexyl)oxy)-5-(trifluoromethyl)naphthalen-2-yl)ethyl)-9-azabicyclo[3.3.1]nonane-3-carboxylic acid, enantiomer 1], the IC50 is at most 100 nM.
In turn, `CC(c1ccc2c(C(F)(F)F)c(O[C@H]3CC[C@@H](C)CC3)ccc2c1)N1C2CCC1CC(C(=O)O)C2` (single isomer, unassigned; enantiomer 1) [Example 130, 8-(1-(6-((cis-4-Methylcyclohexyl)oxy)-5-(trifluoromethyl)naphthalen-2-yl)ethyl)-8-azabicyclo[3.2.1]octane-3-carboxylic acid, enantiomer 1] displayed a 50% inhibitory concentration (IC50) of at most 250 nM.
For the compound `CC(c1ccc2c(C(F)F)c(O[C@H]3CC[C@@H](C)CC3)ccc2c1)N1C2CCC1CC(C(=O)O)C2` (single isomer, unassigned; enantiomer 1) [Example 136, 8-(1-(5-(difluoromethyl)-6-((cis-4-methylcyclohexyl)oxy)naphthalen-2-yl)ethyl)-8-azabicyclo[3.2.1]octane-3-carboxylic acid, enantiomer 1], the IC50 was at most 100 nM.
`CC(c1ccc2c(C(F)F)c(O[C@H]3CC[C@@H](C)CC3)ccc2c1)N1C2CCCC1CC(C(=O)O)C2` (single isomer, unassigned; enantiomer 1) [Example 138, 9-(1-(5-(difluoromethyl)-6-((cis-4-methylcyclohexyl)oxy)naphthalen-2-yl)ethyl)-9-azabicyclo[3.3.1]nonane-3-carboxylic acid, enantiomer 1] had an IC50 of at most 100 nM.
In turn, `CCC(c1ccc2c(C(F)F)c(O[C@H]3CC[C@@H](C)CC3)ccc2c1)N1C2CCC1CC(C(=O)O)C2` (single isomer, unassigned; enantiomer 1) [Example 140, 8-(1-(5-(difluoromethyl)-6-((cis-4-methylcyclohexyl)oxy)naphthalen-2-yl)propyl)-8-azabicyclo[3.2.1]octane-3-carboxylic acid, enantiomer 1] registered an IC50 of at most 100 nM.
Take `O=C(O)C1CC2CCC(C1)C2NCc1ccc2c(C(F)(F)F)c(O[C@H]3CC[C@@H](C(F)(F)F)CC3)ccc2c1` (single isomer, unassigned; enantiomer 1) [Example 162, N-(5-trifluoromethyl-6-(cis-4-trifluoromethyl-cyclohexyloxy)-naphthalen-2-ylmethyl)-8-aminobicyclo[3.2.1]octane-3-carboxylic acid, enantiomer 1]: the IC50 is at most 250 nM.
As to `CC(c1ccc2c(C(F)(F)F)c(O[C@H]3CC[C@@H](C(F)(F)F)CC3)ccc2c1)N1C2CCC1CC(C(=O)O)C2` (single isomer, unassigned; enantiomer 1) [Example 173, 8-(1-(5-(trifluoromethyl)-6-((cis-4-(trifluoromethyl)cyclohexyl)oxy)naphthalen-2-yl)ethyl)-8-azabicyclo[3.2.1]octane-3-carboxylic acid, enantiomer 1], the half-maximal inhibitory concentration (IC50) was at most 100 nM.
`CC(c1ccc2c(C(F)(F)F)c(O[C@H]3CC[C@@H](C)CC3)ccc2c1)N1C2CCC1CC(C(=O)O)C2` (single isomer, unassigned; enantiomer 2) [Example 131, 8-(1-(6-((cis-4-Methylcyclohexyl)oxy)-5-(trifluoromethyl)naphthalen-2-yl)ethyl)-8-azabicyclo[3.2.1]octane-3-carboxylic acid, enantiomer 2]: the IC50 was at most 100 nM.
